# Measured values as given in US7062219B2, “Protein fragment complementation assays for high-throughput and high-content screening” (Odyssey Thera Inc., priority 1997, dated 2006).
# “Also recorded” adds a separate entry of the source. Non-standard residues stand in square brackets, D forms with d. Residues, ends and D or L forms follow the SMILES beside them. Nle = CCCC[C@H](N)C(=O)O
# What was measured:
# [1] = system: IkBa/p65 complex; assay: stable cell line IkBa/p65 YFP PCA, mean fluorescence intensity; assay type: cell-based
# Text: TNF-induced degradation of IkBa, which is a consequence of ubiquitination and proteasomal degradation, frees bound NFkB and results in translocation of that transcription factor into the nucleus. Thus, disassembly of the IkBa-NFkB complex is a key step in NFkB-mediated gene regulation. To visualize regulation of the NFkB pathway at this level, we engineered a stable cell line expressing an IkBa/p65 PCA (FIG. 14). ERK1/MEK1 was used as a control. ERK1 was ligated to the 5′ end of YFP[1] while IkBa and MEK1 were appended to YFP[2] in N-terminal fusions. […]
# Cells expressing IkBa-YFP[1]/YFP[2]-p65 or the controls, MEK-YFP[2]/ERK1-YFP[1], were seeded at 20,000 cells/well in black-walled poly-lysine coated 96 well plate (Greiner). […] Fluorescence was visualized and images were acquired using a Discovery-1 automated fluorescence imager (Molecular Devices, Inc.) equipped with excitation and emission filters 470/35 and 535/60, respectively. […]
# Images were analyzed using Image J. Total mean fluorescence intensity for all cells was assessed by adding weighted mean fluorescence intensities for the nucleus and cytoplasm for individual cells in the population for a given condition +/− standard error. […] There was no effect of TNF treatment on the fluorescence intensity of the control (MEK/ERK) PCA.
# [2] = system: NFkB (p65/p50) complex; assay: transient high-content YFP PCA for NFkB (p65/p50) nuclear translocation in CHO cells; assay type: cell-based; conditions: 40 micrograms/ml ALLN 1 hour prior to and during TNF
# Method: Fusion genes were subcloned into pCDNA3.1 expression vectors (Invitrogen) with a Zeocin selectable marker for YFP[1]-p50, and a hygromycin marker for YFP[2]-p65. A linker consisting of (GGGGS)2 (SEQ ID No.1) separated the genes of interest and the YFP fragments. CHO DUKXB11 cells were seeded into 96 well plates at a density of 8×10e3 cells/well and transfected 24 hours later with YFP[1] and YFP[2] fusion genes at a 1:1 molar ratio using Fugene (Boehringer Mannheim) according to manufacturer's directions. A total of 20 ng DNA per well was used for each sample. Thirty-six hours post-transfection, cells were serum starved by incubation in 0.25% FBS-supplemented aMEM for an additional 16–18 hours. For cytokine induction, certain cells were treated with 25 ng/ml mTNF (Boehringer Mannheim) for 30 min. To examine the effect of proteasome inhibition on NFkB nuclear translocation, the serum-starved cells were treated with 40 micrograms/ml ALLN (Calbiochem) for 1 hour prior to and during the mTNF alpha induction period. The cells were rinsed with PBS and the subcellular location of NFkB complexes was visualized and images acquired using a Nikon Eclipse TE2000 fluorescence microscope at excitation and emission wavelengths of 485 nm and 527 nm, respectively. Quantitative analysis of fluorescence intensities was performed using Metamorph software (Universal Imaging, Molecular Devices, Inc.)
smiles,measurement,setting,value
CCCC[C@@H](C=O)NC(=O)[C@H](CC(C)C)NC(=O)[C@H](CC(C)C)NC(C)=O [ALLN] (Ac-Leu-Leu-[Nle]-aldehyde),inhibition of the TNF-induced reduction of IkBa/p65 complexes,[1]; ALLN treatment for 4 hr,98%
same,effect on TNF-induced reduction in IkBa/p65 signal (in words),[1]; FIG. 14,blocked
same,effect on TNF-induced cytoplasmic-to-nuclear translocation of NFkB complexes,[2],inhibition of the TNF response; also recorded: inhibited
